Test results reported in ChEMBL document CHEMBL1157687, “Inhibitory activity of Brazilian green propolis components and their derivatives on the release of cys-leukotrienes” (Bioorg Med Chem, 2010).
≈ marks a conversion by molar mass, not a printed value.

Tested on: HL-60 (Homo sapiens)
Assay: Antiallergic activity in Ca(2+)-stimulated differentiated human HL-60 cells assessed as inhibition of cys-leukotriene release after 6 days by ELISA
Conditions: HL-60, 144 h

CC(C)=CCc1cc(/C=C/C(=O)OCCc2ccccc2)cc(CC=C(C)C)c1O [ARTEPILLIN C PHENETHYL ESTER]
IC50: 0.094 µg/mL (≈ 0.232 µM)

CC(C)=CCc1cc(/C=C/C(=O)O)cc(CC=C(C)C)c1O [ARTEPILLIN]
IC50: 7 µg/mL (≈ 23.3 µM)

CC(C)=CCc1cc(/C=C/C(=O)OCCc2ccccc2)ccc1OC(=O)CCc1ccccc1 [BACCHARIN PHENETHYL ESTER]
IC50: > 10 µg/mL

O=C(/C=C/c1ccc(O)c(O)c1)OCCc1ccccc1 [CAFFEIC ACID PHENETHYL ESTER]
IC50: 0.068 µg/mL (≈ 0.239 µM)

O=C(O)/C=C/c1ccc(O)c(O)c1 [CAFFEIC ACID]
IC50: 44 µg/mL (≈ 244 µM)

CC(C)=CCc1cc(/C=C/C(=O)OCCc2ccccc2)cc2c1OC(C)(C)C=C2 [CULIFOLIN PHENETHYL ESTER]
IC50: > 10 µg/mL

CC(C)=CCc1cc(/C=C/C(=O)O)cc2c1OC(C)(C)C=C2 [CULIFOLIN]
IC50: 1.6 µg/mL (≈ 5.36 µM)

CC(C)=CCc1cc(/C=C/C(=O)OCCc2ccccc2)ccc1O [DRUPANIN PHENETHYL ESTER]
IC50: 0.2 µg/mL (≈ 0.594 µM)

CC(C)=CCc1cc(/C=C/C(=O)O)ccc1O [DRUPANIN]
IC50: 10.3 µg/mL (≈ 44.3 µM)

COc1ccc(-c2oc3cc(O)cc(O)c3c(=O)c2O)cc1 [KAEMPFERIDE]
IC50: 2 µg/mL (≈ 6.66 µM)

O=c1c(O)c(-c2ccc(O)cc2)oc2cc(O)cc(O)c12 [KAEMPFEROL]
IC50: 2.4 µg/mL (≈ 8.38 µM)

CC(Cc1ccc(O)c(O)c1)C(C)Cc1ccc(O)c(O)c1 (centres undefined) [NORDIHYDROGUAIARETIC ACID]
IC50: 0.08 µg/mL (≈ 0.265 µM)

O=C1C[C@@H](c2ccccc2)Oc2cc(O)cc(O)c21 [PINOCEMBRIN]
IC50: 6.1 µg/mL (≈ 23.8 µM)

CC(c1cc2ccccc2s1)N(O)C(N)=O (centres undefined) [ZILEUTON]
IC50: 0.04 µg/mL (≈ 0.169 µM)
